The target of experiment [1] is vasopressin receptors (V2 -receptors) (Sus scrofa, UniProt P32307). Kind of experiment: biochemical. The method, then: (§1) V2 -antagonistic activity toward the natural anti-diuretic hormone (anti-ADH activity) is determined, in vitro, in the medullary tissue of hog or human kidneys and, in vivo, in the hydropenic rat. The in vitro assay procedures for vasopressin stimulated adenylate cyclase activation or vasopressin binding activity are described by F. Stassen et al., J. Pharmacology and Experimental Therapeutics 223, 50-54 (1982). V1 -antagonistic activity is determined by procedures using the rat thoracic aorta tissue and plasma membranes of rat liver. These procedures are described in the noted Stassen publication and in a publication at the 1st International Conference on Diuretics, Miami, Fla., March (1984). Oxytocin antagonism is determined as described by W. Sawyer et al., Endocrinology 106, 81 (1979).
(§2) The hydropenic rat screen and the hog kidney assay are known to the art, Huffman et al., U.S. Pat. No. 4,469,679.

The target of experiment [2] is vasopressin stimulated adenylate cyclase (V2 -receptors) (Sus scrofa, UniProt P32307). Kind of experiment: biochemical. The method, then:
as §1, §2

Structures are written as SMILES. *1 amine or outer side, *2 acyl side, *3 side chain or, on linkers, in order; H or OH if unused. Where a SMILES comes first, the peptide text is derived from it. Bridges are numbered along the chain shown (N, C = ends). [ ]: non-standard residue; d: D form. X2 = C[C@H]1CC[C@@](CC(=O)[*:1])(S[*:2])CC1

As usually defined, the Ki is a dissociation constant, usually derived from enzyme kinetics or from competition with a known ligand. Low readings indicate tighter binding, high ones weaker binding.

Sequence of vasopressin receptors (V2 -receptors) (P32307 whole entry): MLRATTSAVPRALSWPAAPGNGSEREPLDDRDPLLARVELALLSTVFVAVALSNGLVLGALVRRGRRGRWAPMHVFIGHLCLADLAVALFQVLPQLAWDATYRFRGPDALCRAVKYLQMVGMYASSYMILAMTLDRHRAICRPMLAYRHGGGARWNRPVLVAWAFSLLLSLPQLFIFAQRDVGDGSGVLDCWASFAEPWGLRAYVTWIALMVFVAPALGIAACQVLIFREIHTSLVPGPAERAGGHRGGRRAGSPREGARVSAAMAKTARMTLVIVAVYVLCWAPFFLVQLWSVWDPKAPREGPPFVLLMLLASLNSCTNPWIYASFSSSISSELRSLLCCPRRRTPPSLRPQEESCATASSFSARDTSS
Sequence of vasopressin stimulated adenylate cyclase (V2 -receptors) (P32307 whole entry): as above

On to `CCOc1ccc(C[C@H]2NC(=O)C[C@]3(CC[C@H](C)CC3)SSC[C@@H](C(=O)N3CCC[C@H]3C(=O)N[C@@H](CCCNC(=N)N)C(=O)NCC(N)=O)NC(=O)[C@H](CC(N)=O)NC(=O)[C@H](C(C)C)NC(=O)[C@H](Cc3ccccc3)NC2=O)cc1` [DTyr(Et) GlyNH2, [1-(4'-methyl-β-mercapto-β,β-cyclopentamethylene propionic acid)-2-(O-ethyl)-D-tyrosine-4-valine-8-arginine]-vasopressin] ([dY](Et)FVNCPRG-NH2; linker N-5 via X2), for which the values for the Ki in experiment [1] and in experiment [2] were 13 nM and 4.2 nM, respectively. Consider `CCOc1ccc(C[C@H]2NC(=O)C[C@]3(CC[C@H](C)CC3)SSC[C@@H](C(=O)N3CCC[C@H]3C(=O)N[C@@H](CCCNC(=N)N)C(N)=O)NC(=O)[C@H](CC(N)=O)NC(=O)[C@H](C(C)C)NC(=O)[C@H](Cc3ccccc3)NC2=O)cc1` [DTyr(Et) NH2, [1-(4'-methyl-β-mercapto-β,β-cyclopentamethylenepropionic acid)-2-(O-ethyl)-D-tyrosine-4-valine-8-arginine-9-desglycine]-vasopressin] ([dY](Et)FVNCPR-NH2; linker N-5 via X2), for which the Ki in experiment [1] amounted to 19 nM. In the case of `COc1ccc(C[C@@H]2NC(=O)C[C@]3(CC[C@H](C)CC3)SSC[C@@H](C(=O)N3CCC[C@H]3C(=O)N[C@@H](CCCNC(=N)N)C(=O)NCC(N)=O)NC(=O)[C@H](CC(N)=O)NC(=O)[C@H](C(C)C)NC(=O)[C@H](Cc3ccccc3)NC2=O)cc1` [LTyr(Me) GlyNH2] (Y(Me)FVNCPRG-NH2; linker N-5 via X2), the Ki is 130 nM in experiment [1] and 44 nM in experiment [2].

The values above are taken from patent publication US4826813A, “4'-Methyl-β-mercapto-β,β-cyclopentamethylenepropionic acid vasopressin antagonists” (SmithKline Beckman Corporation, priority 1987, dated 1989).
